{"source": "patent US8324261B2", "about": "“Histidine derivatives” (Nippon Zoki Pharmaceutical Co., Ltd., priority 2007, dated 2012)", "key": {"[1]": {"test_system": "SART stressed mouse", "assay": "Test for analgesic effect (1): SART stressed mouse, modified Randall-Selitto tail pressure method", "format": "in vivo, mice"}, "[2]": {"test_system": "Chung model rat", "assay": "Test for analgesic effect (2)/(3): Chung model rat, mechanical allodynia by von Frey filament", "format": "in vivo, rats", "method": "A test for analgesic effect was conducted using a Chung model rat which is a neuropathic pain model. As to the test animal, male rats of Wistar strain of nine weeks age were used and model rats were prepared in accordance with the method of Kim and Chung (Pain, vol. 50, pages 355 to 363, 1992). Thus, under anesthetization with pentobarbital (40 mg/kg, intraperitoneal administration), rat L5 spinal nerve was exposed and L5 dorsal root ganglion periphery side was strongly ligated using 5-0 silk yarn. The animals were placed in a transparent acrylate cage whose bottom was made of wire net, a 50% reaction threshold value was calculated by an up-down method using a von Frey filament (manufactured by North Coast Medical Inc.) according to the methods of Chaplan, et al. (J. Neurosci. Method, vol. 53, pages 55 to 63, 1994) and by Lee, et al. (J. Neurophysiol., vol. 81, pages 2226 to 2233, 1999) and measurement of allodynia was conducted. Before injury of spinal nerve, the 50% reaction threshold value was measured twice and the animals where the threshold value was outside the standard were excluded from the operation for spinal nerve injury. […] Those test animals were made into groups of seven animals so that the mean value of 50% reaction threshold after 28 days from the nerve injury as an index became nearly the same in each group.\nThe carboxylic acid type of the compounds of the present invention as a test substance was intraperitoneally administered in a single dose while, a 0.5% CMC-Na/physiological saline solution was administered similarly to a nerve injury control group. After 30 minutes from the administration of the test substance, allodynia was measured to calculate a 50% reaction threshold value. With regard to a significance test, Paired t-test was conducted for comparison between before and after the nerve injury and Dunnett's multiple comparison test was used for comparison among multiple groups of the nerve injury control group and the test substance administration group.\nAccording to the same manner as in the above Test for Analgesic Effect (2), each of Compound 12 of the present invention (3 mg/kg, 10 mg/kg) and Carboxylic acid substance A of the compound of the present invention (10 mg/kg) was orally administered in a single dose as the test substance to Chung model rats. Allodynia after 0, 15, 30, 60 and 120 minutes from the administration was measured for each of the test substance administration group and the nerve injury control group whereupon a 50% reaction threshold value was calculated."}, "[3]": {"test_system": "mice", "assay": "Test for analgesic effect (4): acetic acid writhing test", "format": "in vivo", "conditions": "oral single dose; 0.7% acetic acid i.p. 25 minutes after; writhing numbers during 10 minutes", "method": "The compounds of the present invention or the carboxylic acid type thereof were orally administered to mice and a test for an analgesic effect was carried out by means of an acetic acid writhing test. As to the test animals, male mice of ddY strain of four weeks age were subjected to a preliminary breeding and they were used where one group comprised ten mice. Each of the compound of the present invention or the carboxylic acid type thereof as a test substance was orally administered in a single dose while, to a control group, distilled water (water for injection) was administered similarly. After 25 minutes from the administration of the test substance, a 0.7% acetic acid/physiological saline was intraperitoneally administered at the dose of 10 mL/kg. From 5 minutes thereafter, writhing numbers during 10 minutes were counted and a suppressive rate for each mouse was calculated according to the following formula. Suppressive Rate (%)=[(Mean writhing numbers of the control group)−(Writhing numbers of each mouse)]÷[Mean writhing numbers of the control group]×100"}, "[4]": {"test_system": "rats", "assay": "Formalin pain test for rats, second phase", "format": "in vivo", "conditions": "oral administration of 100 mg/kg"}, "[5]": {"test_system": "rats", "assay": "Hyperalgesia in osteoarthritis model induced by monoiodoacetic acid into joints of rats", "format": "in vivo", "conditions": "oral administration of 1 mg/kg"}, "[6]": {"assay": "Test of kinetics in blood of rats", "format": "in vivo", "conditions": "rat, in vivo, po, 10 mg/kg", "method": "Each of the compound of the present invention and the carboxylic acid type A thereof was dissolved in DMSO, diluted with water. A sample solution (1% DMSO solution) made into 2 mg/mL was orally administered in a single dose to the fasted Wistar strain SPF male rats of seven weeks age using a stomach tube (10 mg/5 mL/kg). At the stages of 0.25, 0.5, 1, 2, 4 and 8 hour(s) after the administration, about 150 μL of the blood was collected from tail vein using a capillary to which heparin was added and said capillary was centrifuged to collect the plasma. Protein was removed from the plasma sample and the supernatant liquid was diluted to prepare each sample solution for the measurement."}, "[7]": {"set-up": "species or system cynomolgus monkeys", "conditions": "cynomolgus monkey, in vivo, 30 mg/kg", "method": "Each of the compound of the present invention and Carboxylic acid type A thereof dissolved or suspended in a hydrochloric acid solution was diluted with water. […] At the stages of before the administration and of 0.25, 0.5, 1, 2, 4, 8 and 24 hour(s) after the administration, the blood was collected from femoral vein using a syringe to which heparin was added followed by subjecting to centrifugation to collect the plasma. Collection of the blood was conducted for three times in total where one collection was done with each blank term of six days for each test substance. Concentration of Carboxylic acid type A in each of the collected plasma samples was quantified by an LC-MS and Cmax (maximum drug concentration in plasma) and AUC (area under blood concentration time curve; 0 to ∞ hour(s)) of the compound of the present invention and Carboxylic acid type A thereof were calculated."}, "[8]": {"test_system": "mice", "assay": "Single dose toxicity test by administration to mice", "format": "in vivo", "conditions": "intraperitoneal 250, 500 and 1,000 mg/kg; 14 days", "method": "A single dose toxicity test by intraperitoneal administration of the carboxylic acid type of the compounds of the present invention to mice was carried out. Male mice of ddY strain of four weeks age were made into groups of five mice so as to make mean body weight in each group nearly the same. Carboxylic acid type A as a test substance was intraperitoneally administered at the doses of 250 mg/kg, 500 mg/kg and 1,000 mg/kg."}, "[9]": {"conditions": "intraperitoneally administered 100 μg/kg to mice"}}, "note": "Where two headings read alike, the source gives them in different places."}
{"smiles": "C=CC(=O)N[C@@H](Cc1cncn1C)C(=O)O", "note": "[Carboxylic acid type A, N^α-acryloyl-N^π-methyl-L-histidine]", "values": [{"measurement": "Analgesic coefficient", "setting": "[1]; 25 ng per mouse into the lateral ventricle, 30 minutes after administration, pain threshold of test group divided by that of SART control group, 1.0 = no effect", "result": 1.33}, {"measurement": "Analgesic coefficient", "setting": "[1]; [9]", "result": 1.24}, {"measurement": "pain threshold value", "setting": "[1]; [9]", "result": 97.8, "unit": "g"}, {"measurement": "analgesic action", "setting": "[1]; oral administration in mice, dose of 3 and 10 mg/kg, peak after 30 minutes", "result": "significant analgesic action"}, {"measurement": "ED50 value determined from the improving rate at peak of action", "setting": "[1]; oral administration in mice, peak after 30 minutes", "result": 2.7, "unit": "mg/kg"}, {"measurement": "threshold as compared with the nerve injury control group", "setting": "[2]; intraperitoneal single dose", "result": "significant increase in the threshold"}, {"measurement": "50% reaction threshold value", "setting": "[2]; intraperitoneally 100 μg/kg single dose, 30 minutes after administration", "result": 9.60, "unit": "g"}, {"measurement": "anti-allodynia action to mechanical allodynia", "setting": "[2]; oral administration, dose of 10 mg/kg, peak after 30 minutes", "result": "significant anti-allodynia action"}, {"measurement": "ED50 value determined from the improving rate at the peak of the action", "setting": "[2]; oral administration, peak after 30 minutes", "result": 2.4, "unit": "mg/kg"}, {"measurement": "anti-allodynia action as compared with the nerve injury control group", "setting": "[2]; oral single dose (Compound 12: 3 and 10 mg/kg; Carboxylic acid type A: 10 mg/kg), 15, 30 and 60 minutes after administration, FIG. 1", "result": "significant anti-allodynia action"}, {"measurement": "Suppressive Rate (%)", "setting": "[3]", "result": 33.1, "unit": "%"}, {"measurement": "analgesic action against pain reaction in the second phase", "setting": "[4]", "result": "significant analgesic action"}, {"measurement": "analgesic effect on hyperalgesia", "setting": "[5]", "result": "significant analgesic effect"}, {"measurement": "AUC", "setting": "[6]", "result": 1339.4, "unit": "ng·h/mL"}, {"measurement": "Cmax", "setting": "[6]", "result": 372.5, "unit": "ng/mL"}, {"measurement": "AUC", "setting": "[7]", "result": 2356.9, "unit": "ng·h/mL"}, {"measurement": "Cmax", "setting": "[7]", "result": 410.8, "unit": "ng/mL"}, {"measurement": "death", "setting": "[8]", "result": "no death case"}]}
